The values that follow are results of earlier work, collected in patent US20120289565A1, “COMBINATIONS OF TOLTERODINE AND SALIVARY STIMULANTS FOR THE TREATMENT OF OVERACTIVE BLADDER” (TheraVida, Inc., priority 2011, published 2012).

For the series the following is noted: 5 mg of pilocarpine.

`CC[C@@H]1C(=O)OC[C@@H]1Cc1cncn1C` [pilocarpine]: the “time of maximum saliva output after administration” value is recorded as “about 30 minutes”.
